Source: the NIST ThermoML archive (doi:10.1021/je9004992)

Test: molar heat capacity at constant pressure
Conditions: Liquid, Small sample (50 mg) DSC

CCCCn1cc[n+](C)c1.F[B-](F)(F)F [1-butyl-3-methylimidazolium tetrafluoroborate]
molar heat capacity at constant pressure [J/K/mol]
Conditions	283.15 K	288.15 K	293.15 K	298.15 K	303.15 K	308.15 K	313.15 K	318.15 K	323.15 K
100 kPa	360.25	362.17	364.16	366.2	368.3	370.45	372.67	374.95	377.29
2000 kPa	360.28	362.2	364.17	366.21	368.31	370.47	372.69	374.97	377.31
4000 kPa	360.31	362.22	364.19	366.23	368.33	370.49	372.71	374.99	377.34
6000 kPa	360.34	362.24	364.21	366.25	368.34	370.5	372.73	375.01	377.36
8000 kPa	360.37	362.27	364.23	366.26	368.36	370.52	372.74	375.03	377.39
10000 kPa	360.39	362.29	364.25	366.28	368.37	370.53	372.76	375.05	377.41
12000 kPa	360.42	362.31	364.27	366.3	368.39	370.55	372.78	375.08	377.44
14000 kPa	360.45	362.34	364.29	366.31	368.4	370.57	372.8	375.1	377.47
20000 kPa	360.54	362.4	364.35	366.36	368.45	370.61	372.85	375.16	377.54
30000 kPa	360.68	362.52	364.44	366.45	368.53	370.69	372.94	375.26	377.67
40000 kPa	360.82	362.64	364.54	366.53	368.61	370.77	373.03	375.37	377.8
50000 kPa	360.96	362.75	364.64	366.61	368.69	370.85	373.12	375.47	377.93
60000 kPa	361.11	362.87	364.73	366.7	368.77	370.93	373.21	375.58	378.05
